In patent publication US8785499B2 (priority 2009, dated 2014):

Columns and labels:
[1] = biological target: ecNadD (Escherichia coli (strain K12), UniProt P0A752); test: biochemical; format: biochemical
[2] = biological target: baNadD (Bacillus anthracis, UniProt C3L5T6); test: biochemical; format: biochemical
baNadD, sequence (C3L5T6 whole entry, looked up): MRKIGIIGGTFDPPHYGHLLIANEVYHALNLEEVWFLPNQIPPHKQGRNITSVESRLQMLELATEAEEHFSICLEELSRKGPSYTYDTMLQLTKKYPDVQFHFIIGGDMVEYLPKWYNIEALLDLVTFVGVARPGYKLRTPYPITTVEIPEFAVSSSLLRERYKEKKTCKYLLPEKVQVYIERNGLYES

SMILES	[…]. coli [1]	[…]. anthracis [2]
O=C(Nc1ccc(O)cc1)c1ccc(Cl)c(Cl)c1 [compound 086]	11%	0%
O=C(O)CCNc1ccc(Br)cc1C(=O)O [compound 087]	11%	0%
Cc1nnc(SCC(=O)Nc2ccc(Cl)cn2)s1 [compound 088]	11%	0%
O=C(O)CC(NC(=O)c1ccccc1NC(=O)c1ccco1)C(=O)O (centres unmarked) [compound 089]	10%	37%
COc1cc(OC)cc(-c2cn[nH]c2N)c1 [compound 090]	10%	0%
Cn1ccc(NC(=O)Nc2ccc(Cl)cc2Cl)n1 [compound 091]	10%	0%
Cc1ccc(S(=O)(=O)/N=C/c2cccnc2)cc1 [compound 092]	10%	0%
CCS(=O)(=O)CCSc1nc2ccccc2o1 [compound 094]	10%	0%
NS(=O)(=O)c1ccc(CCNC(=S)Nc2ccc(S(N)(=O)=O)cc2)cc1 [compound 095]	10%	0%
NC(=O)c1ccc(NC(=O)COc2ccc3ccccc3c2)cc1 [compound 097]	10%	63%
COc1cccc(C=C2C(=O)NC(=O)NC2=O)c1OCC(=O)O [compound 098]	10%	13%
Cc1cc(OCC(=O)Nc2ccc(S(N)(=O)=O)cc2)ccc1Cl [compound 099]	10%	2%
O=C(CSc1nnc(-c2ccncc2)[nH]1)Nc1ccccc1Cl [compound 100]	9%	0%
NS(=O)(=O)c1ccc(CCNC(=O)COc2ccc(Cl)cc2Cl)cc1 [compound 101]	9%	0%
Cc1nc(N)nc(O)c1Oc1ccccc1 [compound 102]	9%	6%
COc1ccc(NS(=O)(=O)c2ccc(SC)cc2)cc1 [compound 103]	9%	0%
Nc1nnc(SCc2ccccc2Cl)s1 [compound 104]	9%	29%
Cc1ccc(NC(=S)NC(=O)c2ccc(F)cc2)nc1 [compound 105]	9%	51%
CCOC(=O)c1cc(-c2ccc(C)cc2)[nH]n1 [compound 106]	9%	0%
O=C(O)c1cc(Cl)c(Cl)cc1C(=O)Nc1ccc(O)cc1 [compound 107]	9%	0%
Cn1nnnc1SCC(=O)Nc1ccc(Br)cc1Cl [compound 108]	9%	0%
CCCn1cc(C(CC(=O)O)C(=O)O)c2ccccc21 (centres unmarked) [compound 110]	9%	0%
O=c1/c(=C/c2ccc(O)cc2)sc2nc3cc(Br)cnc3n12 [compound 111]	9%	6%
O=C(Nc1ncnc2[nH]cnc12)c1ccccc1 [compound 112]	8%	0%
Br.Cn1ccnc1SCC(=O)c1ccccc1 [compound 113]	8%	12%
CCCCN(C(C)=O)c1ccc(C(=O)O)cc1 [compound 114]	8%	0%

SMILES	[…]. coli [1]	[…]. anthracis [2]
O=C(O)CN(c1ccccc1)S(=O)(=O)c1ccccc1[N+](=O)[O-] [compound 115]	8%	0%
O=C(O)c1nonc1NCn1cnnn1 [compound 116]	8%	5%
O=C(O)Cn1cc(Cl)c([N+](=O)[O-])n1 [compound 117]	8%	14%
NS(=O)(=O)c1ccc(/N=C/c2ccc(Cl)cc2Cl)cc1 [compound 118]	8%	0%
O=C(O)c1cc(/N=C/c2ccc3c(c2)OCO3)ccc1O [compound 119]	8%	0%
Cc1cccc(C(=O)NNC(=O)/C=C\C(=O)O)c1 [compound 120]	8%	0%
CCSc1ccccc1C(=O)Nc1ccc(S(N)(=O)=O)cc1 [compound 121]	8%	0%
Cc1ccc(C(=O)Nc2nc3ccc(Br)cc3s2)o1 [compound 123]	7%	0%
O=C(NCc1ccccc1)Nc1ccc2nsnc2c1 [compound 124]	7%	0%
CC(=O)Nc1ccc(OCC(=O)Nc2ccccc2)cc1 [compound 125]	7%	0%
CCOc1ccc(S(=O)(=O)Nc2cccnc2)cc1 [compound 126]	7%	22%
CC(=O)c1ccc(NC(=O)CC(NCc2cccnc2)C(=O)O)cc1 (centres unmarked) [compound 127]	7%	59%
CC(=O)Nc1ccc(NC(=O)CSc2nccc(O)n2)cc1 [compound 128]	7%	0%
O=C(CSc1nnc[nH]1)Nc1ccc(I)cc1 [compound 129]	7%	0%
O=C(O)c1ccccc1S(=O)(=O)c1ccccc1C(=O)O [compound 130]	7%	28%
O=C(O)/C=C\C(=O)Nc1ccc(Br)c(Cl)c1 [compound 131]	7%	0%
O=C(O)c1ccccc1NC1=NS(=O)(=O)c2ccccc21 [compound 132]	6%	25%
O=C(O)c1cc(C(=O)O)cc(N2C(=O)c3ccc(C(=O)O)cc3C2=O)c1 [compound 134]	6%	0%
O=c1[nH]c2ccc(/N=C/c3cc(Cl)ccc3O)cc2[nH]1 [compound 135]	6%	10%
NC(=S)NNC(=O)c1ccccc1C(=O)O [compound 136]	6%	64%
O=C(Nc1ncccc1Cl)c1ccc(Br)cc1 [compound 137]	6%	7%
COc1ccc(-c2csc(N)n2)cc1[N+](=O)[O-] [compound 138]	6%	54%
COc1ccc(S(=O)(=O)Nc2ccc(C(N)=O)cc2)cc1Cl [compound 139]	6%	0%
NS(=O)(=O)c1ccc2nc(NC(=O)CCc3ccccc3)sc2c1 [compound 140]	6%	0%
O=C(O)c1ccc(-n2cccn2)cc1 [compound 141]	6%	17%
O=S(=O)(NCCCc1ccccc1)c1cccc2nsnc12 [compound 142]	6%	0%

SMILES	[…]. coli [1]	[…]. anthracis [2]
c1ccc2[nH]c(SCc3cn4ccsc4n3)nc2c1 [compound 143]	6%	2%
CC1=C(C)CC(C(=O)Nc2ccc(I)cc2)C(C(=O)O)C1 (centres unmarked) [compound 144]	6%	65%
O=C(Cn1cnc2ccccc2c1=O)Nc1nccs1 [compound 145]	6%	0%
Cc1nnc(SCC(=O)Nc2ccc(Cl)cn2)[nH]c1=O [compound 146]	5%	11%
Cc1ccc(C(=O)N/N=C/c2ccc(O)c(I)c2)cn1 [compound 147]	5%	12%
O=C(O)/C=C/c1ccncc1 [compound 148]	5%	4%
CCS(=O)(=O)n1nc(-c2ccc(OC)cc2)nc1N [compound 149]	5%	0%
CSc1ccc(CNc2ccc(S(N)(=O)=O)cc2)cc1 [compound 150]	5%	0%
O=C(/C=C/c1ccoc1)c1ccccc1O [compound 151]	5%	0%
O=C(O)C1C2C=CC(C2)C1C(=O)Nc1ccc(Cl)c(Cl)c1 (centres unmarked) [compound 152]	5%	0%
O=C(O)c1cc(NS(=O)(=O)c2cccc3nsnc23)cc(C(=O)O)c1 [compound 153]	5%	0%
O=C(O)CNC(=S)N(Cc1ccccc1)Cc1cccs1 [compound 154]	5%	0%
Cc1ccc2nc(NC(=S)NC(=O)c3cccs3)sc2c1 [compound 155]	5%	26%
O=C(O)c1ccccc1C(=O)c1cccs1 [compound 156]	5%	22%
NS(=O)(=O)c1ccc(NCc2cccc(Cl)c2Cl)cc1 [compound 157]	5%	0%
CSc1sc(C(=O)O)c(I)c1S(=O)(=O)C(C)C [compound 158]	4%	36%
O=C(O)C1=C(c2cc([N+](=O)[O-])ccc2O)N=S=N1 [compound 159]	4%	1%
Cc1ccc(-c2nnc(SCC(=O)O)[nH]2)cc1 [compound 160]	4%	0%
N=C(NNS(=O)(=O)c1ccccc1)c1ccccn1 [compound 161]	4%	68%
Cc1ccc(S(=O)(=O)/N=C(\N)c2ccc(F)cc2)cc1 [compound 162]	4%	0%
CS(=O)(=O)N(CC(=O)Nc1ccccc1Br)c1ccc(Cl)cc1 [compound 163]	4%	54%
Nc1cc(=O)[nH]c(SCC(=O)Nc2ccc(S(N)(=O)=O)cc2)n1 [compound 164]	4%	32%
O=[N+]([O-])c1cc(Cl)ccc1NCCCNS(=O)(=O)c1ccccc1 [compound 165]	4%	0%
O=C(O)c1cccc(-n2nc(O)ccc2=O)c1 [compound 166]	4%	19%
